Results: ChEMBL document CHEMBL1130041, “Halogenated 4-(phenoxymethyl)piperidines as potential radiolabeled probes for sigma-1 receptors: in vivo evaluation of [123I]-1-(iodopropen-2-yl)-4-[(4-cyanophenoxy)methyl]pip eri dine” (J Med Chem, 1997)
pKi: −log10 of the molar value.

Experiments:
Sigma 2 receptor = test: Receptor binding affinity against Sigma-2 receptor from guinea pig membranes; design: species or system Cavia porcellus
Rattus norvegicus [1] = species: Rattus norvegicus; test: Biodistribution of [123I]-label in rat spleen was reported at 24 h post injection. Value shown is %ID/g of tissue; format: ADME, organism-based; settings: in vivo
Rattus norvegicus [2] = species: Rattus norvegicus; test: Distribution of [123I]-label in rat brain (cerebellum) was reported at 20 min post injection. Value shown is %ID/g of tissue; format: ADME, organism-based; settings: in vivo
Rattus norvegicus [3] = species: Rattus norvegicus; test: Biodistribution of [123I]-label in rat brain was reported at 24 hr post injection. Value shown is %ID/organ; format: ADME, organism-based; settings: in vivo
Rattus norvegicus [4] = species: Rattus norvegicus; test: Biodistribution of [123I]-label in rat brain was reported at 2 hr post injection. Value shown is %ID/organ; format: ADME, organism-based; settings: in vivo
Rattus norvegicus [5] = species: Rattus norvegicus; test: Biodistribution of [123I]-label in rat muscle was reported at 4 hr post injection. Value shown is %ID/g of tissue; format: ADME, organism-based; settings: in vivo
Rattus norvegicus [6] = species: Rattus norvegicus; test: Biodistribution of [123I]-label in rat lung was reported at 2 hr post injection. Value shown is %ID/g of tissue; format: ADME, organism-based; settings: in vivo
Rattus norvegicus [7] = species: Rattus norvegicus; test: Biodistribution of [123I]-label in rat brain was reported at 4 hr post injection. Value shown is %ID/organ; format: ADME, organism-based; settings: in vivo
Rattus norvegicus [8] = species: Rattus norvegicus; test: Biodistribution of [123I]-label in rat lung was reported at 24 hr post injection. Value shown is %ID/g of tissue; format: ADME, organism-based; settings: in vivo
Rattus norvegicus [9] = species: Rattus norvegicus; test: Biodistribution of [123I]-label in rat thyroid was reported at 0.33 hr post injection. Value shown is %ID/organ; format: ADME, organism-based, Thyroid gland; settings: in vivo
Rattus norvegicus [10] = species: Rattus norvegicus; test: Distribution of [123I]-label in rat brain (frontal cortex) was reported at 60 min post injection. Value shown is %ID/g of tissue; format: ADME, organism-based; settings: in vivo, 1 h
Rattus norvegicus [11] = species: Rattus norvegicus; test: Biodistribution of [123I]-label in rat liver was reported at 24 h post injection. Value shown is %ID/g of tissue; format: ADME, organism-based; settings: in vivo
Rattus norvegicus [12] = species: Rattus norvegicus; test: Distribution of [123I]-label in rat brain (striatum) was reported at 60 min post injection. Value shown is %ID/g of tissue; format: ADME, organism-based; settings: in vivo, 1 h
Rattus norvegicus [13] = species: Rattus norvegicus; test: Biodistribution of [123I]-label in rat brain was reported at 24 hr post injection. Value shown is %ID/g of tissue; format: ADME, organism-based; settings: in vivo
Rattus norvegicus [14] = species: Rattus norvegicus; test: Distribution of [123I]-label in rat brain (medulla pons) was reported at 60 min post injection. Value shown is %ID/g of tissue; format: ADME, organism-based; settings: in vivo, 1 h
Rattus norvegicus [15] = species: Rattus norvegicus; test: Biodistribution of [123I]-label in rat thyroid was reported at 2 hr post injection. Value shown is %ID/organ; format: ADME, organism-based, Thyroid gland; settings: in vivo
Rattus norvegicus [16] = species: Rattus norvegicus; test: Biodistribution of [123I]-label in rat stomach was reported at 24 hr post injection. Value shown is %ID/g of tissue; format: ADME, organism-based; settings: in vivo
Rattus norvegicus [17] = species: Rattus norvegicus; test: Biodistribution of [123I]-label in rat spleen was reported at 4 hr post injection. Value shown is %ID/g of tissue; format: ADME, organism-based; settings: in vivo
Rattus norvegicus [18] = species: Rattus norvegicus; test: Distribution of [123I]-label in rat brain (hippocampus) was reported at 20 min post injection. Value shown is %ID/g of tissue; format: ADME, organism-based; settings: in vivo
Rattus norvegicus [19] = species: Rattus norvegicus; test: Biodistribution of [123I]-label in rat blood was reported at 1 hr post injection. Value shown is %ID/g of tissue; format: ADME, organism-based; settings: in vivo
Rattus norvegicus [20] = species: Rattus norvegicus; test: Biodistribution of [123I]-label in rat heart was reported at 4 hr post injection. Value shown is %ID/g of tissue; format: ADME, organism-based; settings: in vivo
Rattus norvegicus [21] = species: Rattus norvegicus; test: Biodistribution of [123I]-label in rat lung was reported at 4 hr post injection. Value shown is %ID/g of tissue; format: ADME, organism-based; settings: in vivo
Rattus norvegicus [22] = species: Rattus norvegicus; test: Distribution of [123I]-label in rat brain (diencephalon) was reported at 20 min post injection. Value shown is %ID/g of tissue; format: ADME, organism-based; settings: in vivo
Rattus norvegicus [23] = species: Rattus norvegicus; test: Biodistribution of [123I]-label in rat kidneys was reported at 1 h post injection. Value shown is %ID/g of tissue; format: ADME, organism-based, Kidney; settings: in vivo
Rattus norvegicus [24] = species: Rattus norvegicus; test: Biodistribution of [123I]-label in rat brain was reported at 4 hr post injection. Value shown is %ID/g of tissue; format: ADME, organism-based; settings: in vivo
Rattus norvegicus [25] = species: Rattus norvegicus; test: Biodistribution of [123I]-label in rat blood was reported at 2 hr post injection. Value shown is %ID/g of tissue; format: ADME, organism-based; settings: in vivo
Rattus norvegicus [26] = species: Rattus norvegicus; test: Biodistribution of [123I]-label in rat thyroid was reported at 1 hr post injection. Value shown is %ID/organ; format: ADME, organism-based, Thyroid gland; settings: in vivo
Rattus norvegicus [27] = species: Rattus norvegicus; test: Biodistribution of [123I]-label in rat brain was reported at 0.33 hr post injection. Value shown is %ID/organ; format: ADME, organism-based; settings: in vivo
Rattus norvegicus [28] = species: Rattus norvegicus; test: Biodistribution of [123I]-label in rat stomach was reported at 1 h post injection. Value shown is %ID/g of tissue; format: ADME, organism-based; settings: in vivo
Rattus norvegicus [29] = species: Rattus norvegicus; test: Biodistribution of [123I]-label in rat lung was reported at 0.33 hr post injection. Value shown is %ID/g of tissue; format: ADME, organism-based; settings: in vivo
Rattus norvegicus [30] = species: Rattus norvegicus; test: Distribution of [123I]-label in rat brain (medulla pons) was reported at 20 min post injection. Value shown is %ID/g of tissue; format: ADME, organism-based; settings: in vivo
Rattus norvegicus [31] = species: Rattus norvegicus; test: Biodistribution of [123I]-label in rat muscle was reported at 24 hr post injection. Value shown is %ID/g of tissue; format: ADME, organism-based; settings: in vivo
D(2) dopamine receptor = D(2) dopamine receptor (Homo sapiens, UniProt P14416); test: In vitro binding affinity for Dopamine receptor D2
D(2) dopamine receptor, sequence (P14416 whole entry): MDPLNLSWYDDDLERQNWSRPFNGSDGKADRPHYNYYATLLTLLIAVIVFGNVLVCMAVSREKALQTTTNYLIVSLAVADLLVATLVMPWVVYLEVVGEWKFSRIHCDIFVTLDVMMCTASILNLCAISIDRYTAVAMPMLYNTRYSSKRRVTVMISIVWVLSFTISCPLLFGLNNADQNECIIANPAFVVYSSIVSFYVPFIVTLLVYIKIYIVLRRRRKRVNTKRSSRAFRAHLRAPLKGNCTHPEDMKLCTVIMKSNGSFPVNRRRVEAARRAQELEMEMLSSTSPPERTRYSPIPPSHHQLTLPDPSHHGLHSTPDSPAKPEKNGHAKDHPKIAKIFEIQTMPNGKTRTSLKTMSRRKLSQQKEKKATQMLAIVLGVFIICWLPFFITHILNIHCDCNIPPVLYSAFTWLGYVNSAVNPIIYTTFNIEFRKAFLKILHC

Rattus norvegicus [32] = species: Rattus norvegicus; test: Biodistribution of [123I]-label in rat blood was reported at 4 hr post injection. Value shown is %ID/g of tissue; format: ADME, organism-based; settings: in vivo
Rattus norvegicus [33] = species: Rattus norvegicus; test: Biodistribution of [123I]-label in rat liver was reported at 4 hr post injection. Value shown is %ID/g of tissue; format: ADME, organism-based; settings: in vivo

pKi (Sigma 2 receptor): 7.41 | ID/g (Rattus norvegicus [1]): 0.87% | ID/g (Rattus norvegicus [2]): 1.01% | ID (Rattus norvegicus [3]): 1.61% | ID (Rattus norvegicus [4]): 2.01% | ID/g (Rattus norvegicus [5]): 0.2% | ID/g (Rattus norvegicus [6]): 3.75% | ID (Rattus norvegicus [7]): 2.03% | ID/g (Rattus norvegicus [8]): 0.79% | ID (Rattus norvegicus [9]): 0.09% | ID/g (Rattus norvegicus [10]): 1.29% | ID/g (Rattus norvegicus [11]): 0.55% | ID/g (Rattus norvegicus [12]): 1.13% | ID/g (Rattus norvegicus [13]): 0.84% | ID/g (Rattus norvegicus [14]): 1% | ID (Rattus norvegicus [15]): 0.27% | ID/g (Rattus norvegicus [16]): 0.18% | ID/g (Rattus norvegicus [17]): 0.93% | ID/g (Rattus norvegicus [18]): 1.02% | ID/g (Rattus norvegicus [19]): 0.08% | ID/g (Rattus norvegicus [20]): 0.67% | ID/g (Rattus norvegicus [21]): 3.14% | ID/g (Rattus norvegicus [22]): 1.03% | ID/g (Rattus norvegicus [23]): 1.64% | ID/g (Rattus norvegicus [24]): 1.07% | ID/g (Rattus norvegicus [25]): 0.03% | ID (Rattus norvegicus [26]): 0.3% | ID (Rattus norvegicus [27]): 1.97% | ID/g (Rattus norvegicus [28]): 0.65% | ID/g (Rattus norvegicus [29]): 6.59% | ID/g (Rattus norvegicus [30]): 0.95% | ID/g (Rattus norvegicus [31]): 0.09% | pKi (D(2) dopamine receptor): < 5.00 | ID/g (Rattus norvegicus [32]): 0.02% | ID/g (Rattus norvegicus [33]): 0.5%
SMILES: N#Cc1ccc(OCC2CCN(C/C=C/I)CC2)cc1
